# Measured values taken from patent US8173428B2, “LNA oligonucleotides and the treatment of cancer” (Santaris Pharma A/S, priority 2004, dated 2012).
# Where two headings read alike, the source gives them in different places. Oligonucleotides are written 5' to 3', each unit as a sugar letter and its base; * is a phosphorothioate linkage, no mark a phosphodiester; rarer units and linkages stand in square brackets, end groups in braces. Plain capitals give the bases only. l = locked nucleic acid (LNA); [5mC] = 5-methylcytosine; d = 2'-deoxy (DNA)
# Assays:
# human Survivin RNA = experiment: Survivin mRNA knockdown in transfected 15PC3 cells by real-time PCR; format: cell-based
# Description: Cell culturing and transfections: 15PC3 cells were seeded in 12-well plates and grown for two days at 37° C. (5% CO2) in DMEM supplemented with 10% FBS, Glutamax I and Gentamicin. When the cells were 60-70% confluent, they were transfected in duplicates with different concentrations of oligonucleotides (0.2-25 nM) using Lipofectamine 2000 (10 μg/ml). Transfections were carried out essentially as described by Dean et al. (1994, JBC 269:16416-16424). In short, cells were incubated for 10 min. with Lipofectamine in OptiMEM followed by addition of oligonucleotide to a total volume of 0.5 ml transfection mix per well. […] Cells were then harvested for protein and RNA analysis.
# Total RNA was isolated using RNeasy mini kit (Qiagen). Cells were washed with PBS, and Cell Lysis Buffer (RTL, Qiagen) supplemented with 1% mercaptoethanol was added directly to the wells. After a few minutes, the samples were processed according to manufacturer's instructions.
# First strand synthesis was performed using OmniScript Reverse Transcriptase kit according to the manufacturer's instructions (Qiagen). For each sample, 0.5 μg total RNA was adjusted to 12 μl and mixed with 0.2 μl poly (dT)12-18 (0.5 μg/μl) (Life Technologies), 2 μl dNTP mix (5 mM each), 2 μl 10× RT buffer, 0.5 μl RNAguard™ RNase Inhibitor (33 units/ml, Amersham) and 1 μl OmniScript Reverse Transcriptase followed by incubation at 37° C. for 60 min. and heat inactivation at 93° C. for 5 min.
# To determine the relative Survivin mRNA level in oligonucleotide treated and untreated cells, the generated cDNA was used in quantitative PCR analysis using an iCycler from BioRad. The cDNA was diluted 5-fold and 8 μl was mixed with 52 μl Taqman probe master mix containing 30 μl Platinum Quantitative PCR SuperMix UDG 2×PCR master mix (Invitrogen), 3 μl 20× Taqman probe and primer mix (forward primer: 5′[…] (SEQ ID NO:29), final 0.9 μM. Reverse primer: 5′[…] (SEQ ID NO:30), final 0.6 μM and taqman probe: FAM-[…]-TAMRA (SEQ ID NO:31), final 0.1 μM) and 19 μl H2O. The 60 μl were dispersed in two wells (96 well plates) with […] in each well. For human Bcl-2 the PCR primers were: […]
# The primers and probe were obtained from […] (France). To normalize any variance in sample preparation, the endogenous GAPDH mRNA was quantified using a pre-developed Taqman assay reagent from Applied Biosystems (4310884E) according to manufacturer's Instructions. Two-fold dilutions of cDNA, synthesised from untreated 15PC3 cells (expressing both Survivin and GAPDH), was used to prepare standard curves for the assays. The PCR program was as follows: 50° C. for 2 min., 95° C. for 10 min. followed by 40 cycles of 95° C. 15 sec., 60° C. 1 min. Relative quantities of Survivin mRNA were determined from the calculated threshold cycle using the iCycler IQ Real Time Detection System software.
# In accordance with the present invention, a series of oligonucleotides were designed to target different regions of the human Survivin RNA, using published sequences (GenBank accession number NM_001168).
# LNA oligonucleotides were evaluated for their potential to knockdown Survivin mRNA in 15PC3 cells. The data are presented as percentage down-regulation relative to mock transfected cells. Transcript steady state was monitored by Real-time PCR and normalised to the GAPDH transcript steady state, see Table 3. Note that all LNA C are 5-methyl-Cytosine.
# 15PC3 cells [1] = experiment: Cell cycle analysis by propidium iodide staining and FACS; format: cell-based, human; settings: 10 nM, 24 hours, 15PC3 cells
# Description: Cell culturing: Human prostate cancer 15PC3 cells (kindly provided by Dr. F Baas, Neurozintuigen Laboratory, AMC, The Netherlands) were seeded to a density of 8×10E5 cells in T75-flasks and grown for two days at 37° C. and 5% CO2 in DMEM supplemented with 10% FBS, Glutamax and Gentamicin. Two days following seeding cells were transfected with 2-10 nM SEQ ID NO. 2 using Lipofectamine at a final conc. of 7.5 μg/ml. Transfections were carried out as described by Dean et al. (1994, JBC 269 p. 16416 16424). In short cells were incubated with Lipofectamine diluted in OptiMEM for 7-10 min followed by the addition of the oligonucleotide to total volume of 8.7 ml per T75 flask. 4 hours following transfection cells were washed in OptiMEM and grown at 37° C. for 12-96 hours in complete growth medium with or without the addition of 2-100 nM Taxol (Sigma Aldrich). Cells were harvested for either mRNA extraction, Caspase 3/7 assay or fixed, stained with PI and analysed by FACS analysis.
# Cell culturing and transfections: As in example 13.
# Fixation and PI staining: Cells were washed in PBS, harvested and resuspended in 100 μl in ice cold PBS. 900 μl ice cold 70% […] and fixed cells were kept at −20 until use. […]
# SEQ ID NO. 2 transfected 15PC3 cells were exposed to different concentrations of Taxol and analysed by Propidium Iodide staining and subsequent FACS analysis (FIG. 7a-c). […]
# 15PC3 cells [2] = experiment: MTS assay of proliferating viable cells; format: cell-based, human
# Description: (§1) Culturing of cells: 15PC3 was cultured in DMEM (Sigma) containing 10% fetal bovine serum, Glutamax I and gentamicin at 37° C., 95% humidity and 5% CO2. The cervical carcinoma cell line HeLa were cultured in MEM (Sigma) containing 10% fetal bovine serum, Glutamax I and gentamicin at 37° C., 95% humidity and 5% CO2. When reaching 60-70% confluency, the cells were transfected using Lipofectamine 2000 (5 μg/ml).
# Cells were seeded to a density of 10000 cells per well in clear 96 well plate (Scientific Orange no. 1472030100) in DMEM the day prior to transfection. The next day cells were washed once in prewarmed OptiMEM followed by addition of 72 μl OptiMEM containing 5 μg/ml Lipofectamine 2000 (Invitrogen). Cells were incubated for 7 min before adding 18 μl oligonucleotides diluted in OptiMEM. […] After 4 hours of treatment, cells were washed in OptiMEM and 100 μl serum containing DMEM was added. Following oligonucleotide treatment cells were allowed to recover for the period indicated, viable cells were measured by adding 20 μl of the tetrazolium compound [3-(4,5-[…])-5-(3-carboxymethoxyphenyl)-2-(4-sulfophenyl)-2H-tetrazolium, inner salt; MTS] and an electron coupling reagent (phenazine ethosulfate, PES; CellTiter 96® AQueous One Solution Cell Proliferation Assay, Promega). Viable cells were measured at 490 nm and 650 nm in a Powerwave (Biotek Instruments).
# The inhibition of growth rate ΔOD (490-650 nm)/h was plotted against the oligonucleotide concentration relative to mock, which was set to 100%. The maximum inhibition of proliferation observed in the MTS assay was 70% (minimum 30%). (Table 5 and FIG. 5)
# HeLa cells = experiment: Annexin V-FITC/PI flow cytometry analysis; format: cell-based, human; settings: 5 nM or 25 nM
# Description: as §1
# 0.4×10^6 HeLa cells were seeded in T25 flasks one day prior to transfection. On the day of transfection, the cells were washed once in 37° C. OptiMEM followed by addition of 2.8 ml OptiMEM containing 5 μg/ml Lipofectamine-2000 (In vitrogen). Cells were incubated for 7 min before adding 700 μl oligonucleotides diluted in OptiMEM to a final concentration of 5 nM or 25 nM, Mock transfected cells served as control. After 4 hours of treatment cells were washed in OptiMEM and 3 ml culture medium was added. Following oligonucleotide treatment cells were allowed to recover for 48 hours before they were harvested by scraping and washed twice in PBS. 0.2×10^6 cells were incubated with 5 μl Annexin V-FITC and 10 μl propidium iodide (PI-10 mg/ml) and incubated for 15 min at room temperature in the dark. […] Moreover, TRAIL (Apo2L) induced HeLA cells (0.5 μg/ml) were used as positive control. (See FIG. 4)
# 15PC3 cells [3] = experiment: Caspase 3/7 activity (apoptosis) in transfected 15PC3 cells; format: cell-based, human; settings: for Apoptosis At 5 nM, 24 hours: 24 hours (Table 7, FIG. 3); for Max Apoptosis: 25 nM, 48 hours (Table 7)
# Description: as §1
# 15PC3 cells were seeded to a density of 10000 cells per well in white 96-well plates (Nunc 136101) in DMEM the day prior to transfection. The next day cells were washed once in prewarmed OptiMEM followed by addition of 72 μl OptiMEM containing 5 μg/ml Lipofectamine-2000 (In vitrogen). Cells were incubated for 7 min before adding 18 μl oligonucleotides diluted in OptiMEM. The final oligonucleotide concentration ranged from 0.2 nM to 100 nM. After 4 hours of treatment, cells were washed in OptiMEM and 100 μl DMEM containing serum was added. Following oligonucleotide treatment, cells were allowed to recover for the period indicated before they were removed from the CO2 incubator and equilibrated to room temperature for 15 min. 100 μl of the highly sensitive Caspase 3/7-Glo™ Reagent (Promega) was added directly to the cells, and the plates were incubated for 20 min. Luminescence (luciferase activity) was recorded in a Luminoskan Ascent instrument (Thermo Labsystems). The luciferase activity is measured as Relative Light Units per seconds (RLU/s). The data was analysed using the Ascent software 2.4.2. Graphs of fold induction relative to mock were generated using MS Excel.
# Staurosporine, Camptothecine or Taxol induced cells served as positive controls (see FIGS. 3, 6A and Table 4 plus Example 21).
# complementary RNA = experiment: Measurement of melting temperature (Tm) of the duplex; format: binding; settings: 3 μM, 10 mM sodium phosphate/100 mM NaCl/0.1 nM EDTA, pH 7.0
# Description: Measurement of melting temperature (Tm) of the compounds: A 3 μM solution of SEQ ID NO. 2 in 10 mM sodium phosphate/100 mM NaCl/[…], pH 7.0 was mixed with its complement DNA/RNA 3 μM in 10 mM sodium phosphate/100 mM NaCl/[…], pH 7.0 at 90° C. for a minute and allowed to cool to room temperature. The Tm of the duplex was then determined by increasing the temperature 1° C./min. from 25 to 95° C. The Tm of SEQ ID NO.
# [4] = 48 hours (Table 7, FIG. 5), read-out: Proliferation IC50 (48 hours)
# [5] = Survivin mRNA down-regulation relative to mock, normalised to GAPDH, standard deviation in brackets, at least three experiments
substance,measurement,setting,value
"^MeCsTscscscsasgscsgstsgscsgs^MeCs^MeCsa (l[5mC]*lT*dC*dC*dC*dA*dG*dC*dG*dT*dG*dC*dG*l[5mC]*l[5mC]*dA) [SEQ ID NO. 26, reference compound]",Survivin mRNA expression,"human Survivin RNA; 10 nM, 24 hours, single agent or combined with control oligonucleotides",does not have any effect on Survivin
"^MeCsGs^MeCsAsgsaststsasgsasasAs^MeCs^MeCst (l[5mC]*lG*l[5mC]*lA*dG*dA*dT*dT*dA*dG*dA*dA*lA*l[5mC]*l[5mC]*dT) [SEQ ID NO. 24, negative control oligonucleotide, design 4-8-3-1]",Effect on the cell cycle,15PC3 cells [1],no effect on the cell cycle
same,Proliferation (relative number of viable cells),"15PC3 cells [2]; 0.2, 1, 5, 25 and 100 nM, 13-72 hours after transfection, 15PC3 cells",does not
same,IC50,"15PC3 cells [2]; 48 hours, transfected 15PC3 cells (Table 5), read-out: Inhibition of proliferation, MTS assay IC50 (48 hours)",86.9 nM
same,Induction of early and late apoptosis (Annexin V-FITC/PI staining),HeLa cells,do not induce apoptosis
same,"Maximum Induction Fold-induction of apoptosis, Caspase 3/7 assay","15PC3 cells [3]; 100 nM, 48 hours, 15PC3 cells","3.1 x (100 nM, 48 hours)"
same,"Fold induction of apoptosis, Caspase 3/7 assay","15PC3 cells [3]; 24 hours, 5 nM, 15PC3 cells, relative to mock",1.5 x
5′-Gs^MeCsAs^MeCsasgststsgsasasas^MeCsAsTsc-3′ (lG*l[5mC]*lA*l[5mC]*dA*dG*dT*dT*dG*dA*dA*dA*l[5mC]*lA*lT*dC) [SEQ ID NO. 22],IC50,15PC3 cells [2]; [4],25 nM
same,"Apoptosis At 5 nM, 24 hours",15PC3 cells [3]; 5 nM,No activity
same,Max Apoptosis,15PC3 cells [3],2.5-fold
TsGsTsGscstsaststscstsgstsgsAsAsTsT (lT*lG*lT*lG*dC*dT*dA*dT*dT*dC*dT*dG*dT*dG*lA*lA*lT*lT) [SEQ ID NO. 21],Tm (° C.) complementary RNA,complementary RNA,62.7 °C
same,IC50,15PC3 cells [2]; [4],25 nM
same,"Apoptosis At 5 nM, 24 hours",15PC3 cells [3]; 5 nM,No activity
same,Max Apoptosis,15PC3 cells [3],2.5-fold
"5′-Gs^MeCsAsGstsgsgsastsgsasasGs^MeCs^MeCsA-3′ (lG*l[5mC]*lA*lG*dT*dG*dG*dA*dT*dG*dA*dA*lG*l[5mC]*l[5mC]*lA) [SEQ ID NO. 23, reference compound]","Apoptosis At 5 nM, 24 hours",15PC3 cells [3]; 5 nM,2-fold
same,Max Apoptosis,15PC3 cells [3],5.5-fold
same,IC50,human Survivin RNA; [5],2.5 nM
same,IC75 [nM],human Survivin RNA; [5],6.2 (1.6) nM
